From US20240002429A1, “PRODRUG OF 5a-HYDROXY-6ß-[2-(1H-IMIDAZOL-4-YL)ETHYLAMINO]CHOLESTAN-3ß-OL AND PHARMACEUTICAL COMPOSITIONS COMPRISING SAME FOR USE IN THE TREATMENT OF CANCER” (priority 2020, published 2024) come the findings set out here.

Like-named read-outs stand apart in the source and are kept apart here.

The subject of one assay is 4T1 cells. The experiment in a line: Cytotoxicity on 4T1 cells, CellTox Green Cytotoxicity Assay. Conditions: Mus musculus, 4T1, Green Cytotoxicity Assay, 48 h. In kind it is cell-based, murine. On the procedure:
The cellular viability tests were carried out on murine mammary tumor 4T1 cells characterized as negative triples (HER2−, ER−, PR−).
For this experiment, a cell culture medium was prepared. The culture medium consists of Dulbecco's Modified Eagle Medium (DMEM, marketed by Westburg under the reference LO BE12-604F), comprising 4.5 g/L glucose with L-glutamine, to which 10% of fetal calf serum (FCS) and 50 U/mL of penicillin/streptomycin are added. The 4T1 cells are introduced into this culture medium.
96-well plates were seeded with 2000 4T1 cells per well. After 72 hours (h) of culture in normal conditions, i.e. in an incubator at a temperature of 37° C. at 5% CO2, the 4T1 cells are treated for 48 h with DX101, DX107, DX113, DX117, DX119, DX121 or DX131 at 100 nM, 1 μM, 2.5 μM and 10 μM. A control condition (CTL) is also carried out in parallel using the protocol described above but without treatment with the molecules DX101, DX107, DX113, DX117, DX119, DX121, DX131 or DX133.
For the third method, the percentage viability is determined using the kit CellTox Green Cytotoxicity Assay (Promega). This assay measures cell death via a change in membrane integrity. […] As a result, the higher the fluorescence in the wells, the greater is the cell death. After 48 h of treatment, the cells are incubated for a minimum of 15 minutes in the presence of the Celltox green reagent at room temperature and the fluorescence is read at […]. The percentage cell death is determined using the control 100% of cell death (carried out for untreated cells incubated in the presence of the lysis solution for 30 minutes at 37° C. before adding the Celltox green reagent), and the cellular viability in each well is then deduced from this percentage. IC50 is then determined as explained above.

Assay [1] deals with MCF-7 mammary tumor cells. The assay is described as follows: cells. The settings on record: Homo sapiens, MCF7, 48 h, read-out: cellular viability relative to the control group. It counts as cell-based. On the procedure: A cell viability test was carried out on MCF-7 mammary tumor cells (Michigan Cancer Foundation-7) […] (ER(+) cells) containing receptors for the hormone estrogen.
The MCF-7 cells are in a cell culture medium identical to example 14 and are seeded in 12-well plates at 50000 cells per well for 24 h. 24 hours after seeding, the cells are treated with the solvate vehicle comprising water and ethanol with an ethanol ratio 1‰ and comprising 5α-hydroxy-6β-[2-(1H-imidazol-4-yl)-ethylamino]-cholestan-3β-yl propionate or 5α-hydroxy-6β-[2-(1H-imidazol-4-yl)-ethylamino]-cholestan-3β-ol at 1, 2.5 or 5 μM. The cells are observed in an inverted microscope and photographed with the microscope camera at 24 h and 48 h. The morphological changes of the cells at 1 μM are very slight.
Following these observations, a cell viability test is measured by MTT labeling at 48 hours. This test is based on the use of the tetrazolium salt MTT (3-(4,5-dimethylthiazol-2-yl)-2,5-diphenyltetrazolium bromide). Tetrazolium is reduced by mitochondrial succinate dehydrogenase of active living cells, in formazan, precipitate of violet color. The amount of precipitate formed is proportional to the quantity of living cells but also to the metabolic activity of each cell. […] After 48 hours, the medium is aspirated, the cells are washed with phosphate-buffered saline (PBS) and then incubated with MTT (0.5 mg/ml in PBS) for about 2 hours. The MTT solution is aspirated and then the violet crystals are dissolved in dimethylsulfoxide (DMSO). The OD (optical density) is measured at 540 nm.
The control group is carried out similarly to the study groups without adding the molecules studied in the present text. Compared to the control, a decrease is measured, dependent on the dose of […], in cellular viability in MTT for 5α-hydroxy-6β-[2-(1H-imidazol-4-yl)-ethylamino]-cholestan-3β-yl propionate and 5α-hydroxy-6β-[2-(1H-imidazol-4-yl)-ethylamino]-cholestan-3β-ol.

In assay [2] the target is T1, cholesterol epoxide hydrolase (ChEH) (Homo sapiens, UniProt Q15125).
T1 construct: endogenous in cells; host or cells: MCF-7
The assay is described as follows: Activity of cholesterol epoxide hydrolase (ChEH) in MCF-7 cells, [14C]5,6α-EC metabolization by TLC. It counts as cell-based. Conditions: MCF-7, 1 μM, 24 h, [14C]5,6α-EC 0.6 μM. From the text:
The compounds 5,6α-epoxycholesterol (5,6α-EC) and 5,6β-epoxycholesterol (5,6β-EC) are oxysterols involved in the anticancer pharmacology of tamoxifen, a widely used antitumor drug. They are both metabolized in cholestan-3β,5α,6β-triol (CT) by the enzyme cholesterol-5,6-epoxide hydrolase (ChEH), and CT is metabolized by the enzyme HSD11B2 (11β-hydroxysteroid dehydrogenase 2) to 6-oxo-cholestan-3β,5α-diol (OCDO), an oncosterone tumor promoter.
MCF-7 cells are in a cell culture medium identical to example 20 and are seeded in 6-well plates at 150000 cells per well with 3 wells per treatment condition. 24 h after seeding, the MCF-7 cells are treated with [^14C]5,6α-EC (stock solution 1000×: 0.6 mM; 20 μCi/μmol; final concentration 0.6 μM) alone or in combination with tamoxifen (tam). Tamoxifen is used as positive control of the study compounds. The treatment with the compound according to the invention is carried out at a concentration of 1 μM.
After 24 hours of treatment, the media are collected and lipid extracts are prepared from the cell pellets by extraction with 100 μL of chloroform, 400 μL of methanol and 300 μL of water. The lipid extracts are analyzed by thin-layer chromatography (TLC) using ethyl acetate (EtOAc) as eluent. The analysis is carried out using a plate reader and then by autoradiography.

[3] abbreviates: log of IC50 in μM, read-out: Mean LogIC50 (±SEM) (converted).

T1 sequence (Q15125 whole entry): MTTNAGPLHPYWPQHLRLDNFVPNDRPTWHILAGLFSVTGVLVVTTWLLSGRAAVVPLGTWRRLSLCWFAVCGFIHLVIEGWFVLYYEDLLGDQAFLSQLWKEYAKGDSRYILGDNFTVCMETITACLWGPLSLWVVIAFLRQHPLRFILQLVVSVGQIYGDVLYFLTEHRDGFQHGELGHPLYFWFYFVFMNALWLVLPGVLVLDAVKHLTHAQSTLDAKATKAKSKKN

By viability is commonly meant a per cent measure of how many cells are alive, often set against a control. Turning to `CC(C)CCC[C@@H](C)[C@H]1CC[C@H]2[C@@H]3C[C@@H](NCCc4c[nH]cn4)[C@@]4(O)C[C@@H](O)CC[C@]4(C)[C@H]3CC[C@]12C` [DX101, 5α-hydroxy-6β-[2-(1H-imidazol-4-yl)-ethylamino]-cholestan-3β-ol, reference compound], the IC50 with 4T1 cells (setting [3]) was 3.55 µM. For the same compound, the IC50 with 4T1 cells (read-out: IC50) came to 3.55 µM. Further, in assay [1], the viability at 2.5 µM was about 60% and the viability at 5 µM is about 18%. Besides, in assay [2], the “inhibition of ChEH activity” value is “almost total (trace of CT)”.
`CCC(=O)O[C@H]1CC[C@]2(C)[C@H]3CC[C@]4(C)[C@@H]([C@H](C)CCCC(C)C)CC[C@H]4[C@@H]3C[C@@H](NCCc3c[nH]cn3)[C@@]2(O)C1` [DX107, 5α-hydroxy-6β-[2-(1H-imidazol-4-yl)ethylamino]cholestan-3β-yl propionate]: the values for the IC50 with 4T1 cells (setting [3]) and with 4T1 cells (read-out: IC50) were 2.34 µM and 2.33 µM, respectively. In assay [1], the viability at 2.5 µM was about 95%. The viability at 5 µM in assay [1] is about 18%. For the same compound, the “inhibition of ChEH activity” value in assay [2] was “inhibition of ChEH is observed relative to the control (1), but it is less than the positive control (2)”.
